Data taken from US12213984B2, “Immunoregulatory agent” (KYUSHU UNIVERSITY, NATIONAL UNIVERSITY CORPORATION, priority 2015, dated 2025).

How the values were obtained:
DOCK2 = biological target: T1, DOCK2 (Homo sapiens, UniProt Q92608); assay: in-vitro GEF assay, Rac activation by DOCK2 (Experimental Example 1); assay type: biochemical
T1 construct: polypeptide fragments corresponding to a DHR-2 domain including the lobe B and the lobe C of DOCK2; Histidine-SUMO (N); made in house; host or cells: E. coli Arctic express DE3 (pET28a); Rac in E. coli BL21 DE3 (pGEX-6P-1)
T1 sequence (Q92608 1196-1622): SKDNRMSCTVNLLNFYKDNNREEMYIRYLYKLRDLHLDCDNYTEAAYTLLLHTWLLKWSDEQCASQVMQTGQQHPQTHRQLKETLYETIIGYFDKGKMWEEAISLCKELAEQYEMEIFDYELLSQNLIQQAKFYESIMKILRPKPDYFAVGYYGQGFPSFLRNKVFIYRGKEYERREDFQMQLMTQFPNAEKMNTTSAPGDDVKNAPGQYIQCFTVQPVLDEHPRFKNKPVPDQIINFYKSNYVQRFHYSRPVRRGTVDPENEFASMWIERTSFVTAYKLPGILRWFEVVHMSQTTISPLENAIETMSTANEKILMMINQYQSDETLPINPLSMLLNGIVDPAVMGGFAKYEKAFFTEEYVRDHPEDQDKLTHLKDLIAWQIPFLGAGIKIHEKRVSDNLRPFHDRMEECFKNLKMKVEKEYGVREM
Experimental: (§1) The selectivity of the effect of inhibiting the GEF of DOCK2 by cholesterol 3-sulfate was examined. All of DOCK2, Trio, and Tiam are GEFs activating Rac. In the presence of serially diluted cholesterol 3-sulfate, the Rac activation ability of a DOCK2 protein, a Trio protein, and a Tiam protein was measured by in-vitro GEF assay. For the in-vitro GEF assay, a labeled GTP (trade name, “Bodipy-FL-GTP”, manufactured by Invitrogen) was used, because it has a property of increasing fluorescence intensity when binds to Rac by the action of GEF. […]
(§2) During the reaction, the change in the fluorescence intensity of Bodipy-FL-GPT was monitored using a spectrofluorometer Enspire manufactured by PerkinElmer Inc (excitation wavelength: 488 nm, emission wavelength: 514 nm). By calculation, the values obtained by the measurement were corrected such that the fluorescence intensity became 0 at a reaction starting point (0 second).
(§3) Then, by using software (trade name “GraphPad Prism 5”, manufactured by GraphPad Software Inc.), an approximation curve was created which is obtained in a case where the calculated corrected values are plotted on the y-axis and time (t) is plotted on the x-axis. […]

Trio = biological target: T2, Trio (Homo sapiens, UniProt O75962); assay: in-vitro GEF assay, Rac activation by Trio (Experimental Example 1); assay type: biochemical
T2 construct: a DH-PH domain of the Trio protein and the Tiam protein; Histidine-SUMO (N); made in house; host or cells: E. coli Arctic express DE3 (pET28a)
Experimental: as §1, §2, §3

[1] = system: neutrophils isolated from the mouse bone marrow; assay: neutrophil migration assay 1 (EZ-TAXIScan, fMLP gradient, pretreated cells); assay type: cell-based; conditions: pretreated 1 hour, fMLP gradient 0 to 10 μM
Experimental: The influence of cholesterol 3-sulfate on a migration speed of neutrophils was examined. More specifically, in the presence of cholesterol 3-sulfate at a predetermined concentration or in the presence of DMSO alone (vehicle control), neutrophils isolated from the mouse bone marrow were incubated for 1 hour at room temperature in 20 mM HEPES-NaOH (pH 7.3)-0.1% BSA-containing RPMI-1640 (Taxiscan medium). The concentration of DMSO was adjusted such that the final concentration of DMSO became 0.2% in all samples.
Then, the pre-treated cells were loaded on wells of one side of the chamber of EZ-TAXIScan (Effector Cell Institute, Inc). After 1 μL of fMLP in a Taxiscan medium was added at a concentration of 10 μM to wells of the other side 260 μm distant from the above wells, neutrophils were allowed to migrate in the presence of a fMLP gradient (0 to 10 μM). Phase-contrast micrographs were obtained for 20 minutes at an interval of 30 seconds, and the trace and speed of neutrophils were analyzed by using manual tracking of the Image J program and a chemotaxis and migration tool.

[2] = system: inflammatory cells infiltrating into the anterior chamber of eye; assay: UV-induced photokeratitis in Sult2B1b gene knockout mice, eye drops; assay type: in vivo, mouse; conditions: eye drops before and after UV irradiation
Source text: As a result of analyzing UV-induced photokeratitis in Sult2B1b gene heterozygous mice (+/−) and Sult2B1b gene knockout mice (−/−), atrophy of the corneal epithelial layer was comparably observed in both mice. Therefore, the eyeball section of each of the mice was subjected to hematoxylin-eosin (HE) staining and observed using an optical microscope. Thereafter, cholesterol 3-sulfate was applied to the eyes of the Sult2B1b gene knockout mouse (−/−) before and after UV irradiation, and the total number of inflammatory cells infiltrating the anterior chamber of eye was counted. As a control, mouse for whom only a vehicle was applied to its eyes was used.

CC(C)CCC[C@@H](C)[C@H]1CC[C@H]2[C@@H]3CC=C4C[C@@H](OS(=O)(=O)O)CC[C@]4(C)[C@H]3CC[C@]12C [C3S, cholesterol 3-sulfate]
IC50 (DOCK2): 6.7 µM
IC50 (Trio): > 300 µM
migration of neutrophils (migration speed) in response to fMLP [1]: markedly inhibited
UV irradiation-induced infiltration of inflammatory cells into the anterior chamber of eye [2]: inhibited
